Experiments:
[1] = species on record: Homo sapiens; test: Selectivity index, ratio of Ki for human recombinant 5-HT1A receptor to Ki for human recombinant 5-HT7 receptor
[2] = biological target: 5-hydroxytryptamine receptor 7 (Homo sapiens, UniProt P34969); test: Displacement of [3H]LSD from human recombinant 5-HT7 receptor expressed in HEK cell membranes by radioligand binding assay; parameters: species or system HEK293
[3] = biological target: T1, 5-hydroxytryptamine receptor 1A (Homo sapiens, UniProt P08908); test: Displacement of [3H]Way100635 from human recombinant 5-HT1A receptor expressed in CHO cell membranes by radioligand binding assay
T1 sequence (P08908 whole entry): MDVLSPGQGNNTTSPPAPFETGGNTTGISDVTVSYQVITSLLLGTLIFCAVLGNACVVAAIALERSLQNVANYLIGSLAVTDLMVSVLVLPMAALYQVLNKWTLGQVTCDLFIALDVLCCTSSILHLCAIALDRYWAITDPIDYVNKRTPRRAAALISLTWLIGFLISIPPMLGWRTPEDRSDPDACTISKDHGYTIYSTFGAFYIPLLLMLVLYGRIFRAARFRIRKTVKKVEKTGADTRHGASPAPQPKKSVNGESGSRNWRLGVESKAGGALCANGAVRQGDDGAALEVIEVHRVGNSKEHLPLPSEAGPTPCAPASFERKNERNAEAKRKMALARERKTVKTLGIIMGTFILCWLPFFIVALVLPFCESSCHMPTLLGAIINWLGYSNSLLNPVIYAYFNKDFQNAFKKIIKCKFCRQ

[4] = species on record: Homo sapiens; test: Selectivity index, ratio of Ki for human recombinant 5-HT2A receptor to Ki for human recombinant 5-HT7 receptor
[5] = biological target: 5-hydroxytryptamine receptor 2A (Homo sapiens, UniProt P28223); test: Displacement of [3H]ketanserin from human recombinant 5-HT2A receptor expressed in HEKT cell membranes by radioligand binding assay; type: cell-based
[6] = biological target: T2, 5-hydroxytryptamine receptor 1A (Homo sapiens) (UniProt P08908); test: Potency index, ratio of Ki for N-Methyllaurotetanine to Ki for test compound against human recombinant 5-HT1A receptor expressed in CHO cell membranes by radioligand binding assay
T2 sequence (whole entry): T1 sequence (P08908 whole entry)

5-hydroxytryptamine receptor 2A, sequence (P28223 whole entry): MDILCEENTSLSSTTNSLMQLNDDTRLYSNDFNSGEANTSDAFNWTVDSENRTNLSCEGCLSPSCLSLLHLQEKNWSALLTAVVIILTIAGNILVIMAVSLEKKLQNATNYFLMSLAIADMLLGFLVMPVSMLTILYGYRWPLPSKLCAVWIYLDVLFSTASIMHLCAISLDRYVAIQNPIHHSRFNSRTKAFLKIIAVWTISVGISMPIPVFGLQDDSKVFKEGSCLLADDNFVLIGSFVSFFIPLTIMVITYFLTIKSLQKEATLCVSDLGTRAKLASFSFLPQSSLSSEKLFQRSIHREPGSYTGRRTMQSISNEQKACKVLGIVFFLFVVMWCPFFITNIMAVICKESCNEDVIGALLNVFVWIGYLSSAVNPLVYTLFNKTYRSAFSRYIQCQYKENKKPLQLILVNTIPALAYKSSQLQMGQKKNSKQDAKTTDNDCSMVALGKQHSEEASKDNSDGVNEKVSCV
5-hydroxytryptamine receptor 7, sequence (P34969 whole entry): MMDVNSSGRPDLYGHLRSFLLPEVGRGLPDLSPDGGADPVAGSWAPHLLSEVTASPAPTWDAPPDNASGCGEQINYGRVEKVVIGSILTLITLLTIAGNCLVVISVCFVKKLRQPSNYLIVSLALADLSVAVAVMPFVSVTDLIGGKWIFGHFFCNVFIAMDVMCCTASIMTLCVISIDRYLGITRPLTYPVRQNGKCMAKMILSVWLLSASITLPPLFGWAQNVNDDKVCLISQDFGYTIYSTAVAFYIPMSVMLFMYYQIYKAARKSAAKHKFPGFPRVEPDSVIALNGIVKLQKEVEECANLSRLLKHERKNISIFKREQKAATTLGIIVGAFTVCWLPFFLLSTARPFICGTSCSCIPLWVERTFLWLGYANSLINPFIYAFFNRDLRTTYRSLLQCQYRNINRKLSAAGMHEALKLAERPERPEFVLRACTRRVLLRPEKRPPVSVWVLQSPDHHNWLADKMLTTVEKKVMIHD

Row | Compound | Ratio Ki [1] | Ki [2] [nM] | Ki [3] [nM] | Ratio Ki [4] | Ki [5] [nM] | Ratio Ki [6]
1 | CCCCCCOc1cc2c(cc1OC)-c1c(OC)c(OC)cc3c1[C@H](C2)N(C)CC3 | 5 | 58 | 273 | 10 | 570 | –
2 | COc1cc2c(cc1OC)-c1c(OC)c(OC)cc3c1[C@H](C2)N(C)CC3 [GLAUCINE] | 4 | 43 | 171 | 22 | 966 | –
3 | CCCCCOc1cc2c(cc1OC)-c1c(OC)c(OC)cc3c1[C@H](C2)N(C)CC3 | 7 | 24 | 179 | 10 | 239 | –
4 | COc1cc2c(cc1OC(C)C)C[C@H]1c3c(cc(OC)c(OC)c3-2)CCN1C | 20 | 28 | 563 | 27 | 750 | –
5 | CCCC(C)Oc1cc2c(cc1OC)-c1c(OC)c(OC)cc3c1[C@H](C2)N(C)CC3 (some centres undefined) | 5 | 24 | 117 | 5 | 244 | < 3
6 | CCCCC(C)Oc1cc2c(cc1OC)-c1c(OC)c(OC)cc3c1[C@H](C2)N(C)CC3 (some centres undefined) | 4 | 38 | 152 | 12 | 446 | < 3
7 | COc1cc2c(cc1OC1CCCCC1)C[C@H]1c3c(cc(OC)c(OC)c3-2)CCN1C | 3 | 50 | 163 | 11 | 570 | < 3
8 | CCC(C)Oc1cc2c(cc1OC)-c1c(OC)c(OC)cc3c1[C@H](C2)N(C)CC3 (some centres undefined) | 7 | 34 | 244 | 7 | 377 | < 3

Source: ChEMBL document CHEMBL3580564, “Semisynthetic Studies on and Biological Evaluation of N-Methyllaurotetanine Analogues as Ligands for 5-HT Receptors” (J Nat Prod, 2015)
